From patent publication US12208091B2, “Compounds for treatment of eye diseases associated with excessive vascularisation” (Active Biotech AB, priority 2019, dated 2025)

Experiments:
[1] = system: bFGF induced corneal vascularisation; experiment: bFGF induced corneal vascularisation (pellet in corneal pocket), area of neovascularisation; type: in vivo, C57BL/6 mice
[2] = system: bFGF induced corneal vascularisation; experiment: as above; type: in vivo, C57BL/6 mice; remark: listed apart in the source
Protocol: The area of the neovascularisation can be measured using the formula: Area=0.2·VL·CH·π wherein vessel length (VL) and continuous circumferential zone (in clock hours=CH) are measured as defined in FIG. 1. Treatment with Laquinimod of VEGF Induced Corneal Vascularisation
Hydron pellets for induction of vascularisation were prepared from stimulant (bFGF) and binding agent (sucralfate).
47 CR female C57BL/6 mice aged 6 to 8 weeks were prepared for surgery by anesthetising with 90 mg/kg of pentobarbital, ip. Corneal vascularisation was induced by placement of a pellet in a corneal pocket cut in one eye. Signs for ocular irritation or infection were carefully monitored.
Dosages of laquinimod in DI (deionised) water, vehicle (DDW=double distilled water), and avastin (positive control) were applied directly to the eye containing the pellet. Vascularisation was measured on day 6.

[3] = system: choroidal neovascularisation; experiment: Laser-induced choroidal neovascularisation rat model, fluorescein angiography leakage score; type: in vivo, Brown Norway pigmented rats; design: key to Mean score of fluorescein leakage: 0 = no leakage, 1 = slight, 2 = moderate, 3 = strongly stained
Protocol: Forty-eight (48) Brown Norway pigmented rats were divided into six (6) groups of eight (8) animals. Choroidal neovascularization was induced using a 532 nm argon laser photocoagulator (six (6) 75 μm-sized spots at 150 mW for 0.1 sec duration) in the right eyes on Day 0. The test item was administered three times a day by instillation or twice a day by oral administration from Day 0 (DO) just after ChNV induction to Day 21 (last day of the study). Control item (vehicle) was instilled three times a day and the reference item (Dexamethasone in olive oil) was administered by daily oral administration from the Day 0 just after induction of neovascularization to Day 21. Fundus neovessels were evaluated in the right eyes on Days 14 and 21 using Heidelberg's Retinal Angiograph (HRA). Lesion size was determined on choroid flatmounts labelled with Isolectin-B4 at the end of the in vivo period.
On Day 0, animals were anesthetized by an intramuscular injection of a mix of xylazine (5 mg/kg) and ketamine (25 mg/kg). Pupils from the right eyes were dilated by instillation of one drop of 0.5% tropicamide. Then, six (6) choroidal burns (75 μm spot size) were done through a slit-lamp, with a contact lens, around the optic disc, between the main vessel branches using an argon laser photocoagulator (532 nm; 150 mW; 0.1 sec duration). Production of a bubble at the time of laser treatment confirmed the rupture of Bruch's membrane.
Test, control, or reference items were administered topically by instillation (10 μL each) or by oral route (1 mL/kg) from Day 0 (just after the induction) to Day 21 (end of the study). Test and control items were administered three times a day (for instillation) and two times a day (for oral administration). Reference item was administered once a day by oral route.
Fluorescein angiography was performed on Days 14 and 21 using an HRA (Heidelberg's Retinal Angiograph). After anaesthesia (same mix used for ChNV induction) and pupillary dilation, 250 μL/100 g (body weight) of a 10% sodium fluorescein was injected subcutaneously using a 26-G insulin syringe, and fluorescein photos were recorded 10 minutes after dye injection.
The leakage of fluorescein on the angiograms were evaluated by two examiners in a masked fashion and graded as follows: • Score 0, no leakage; • Score 1, slightly stained; • Score 2, moderately stained; • Score 3, strongly stained.
Statistical analysis, using Mann-Whitney U test or appropriate statistical model, were performed on the scoring of lesions visualized by HRA from each animal and on the scoring of the flat mounted preparations.
The grading of fluorescein angiographies (FA) was based on the fluorescence intensity for each lesion. For each treatment group, results were expressed as the group mean score per time-point. Table 1 summarises the evaluation of FA recorded at 10 min on Days 14 and 21 (n=8 animals per group, right eyes). A statistical analysis was performed on the median of the individual intensity scores, using a Kruskall-Wallis test followed by a Mann & Whitney U multiple comparison test, which was used to compare each test, control or reference group.

[4] = group 4: 10 μg/animal topical bid ×5, measured day 6
[5] = group 6: 10 μg/animal topical qid ×5, measured day 6
[6] = group 7: 50 μg/animal topical qid ×5, measured day 6
[7] = group 5: 50 μg/animal topical bid ×5, measured day 6
[8] = Instillations 0.2% 3×/day, Day 14
[9] = Instillations 0.2% 3×/day, Day 21
[10] = Instillations 1% 3×/day, Day 14
[11] = Instillations 1% 3×/day, Day 21
[12] = Instillations 5% 3×/day, Day 14
[13] = Instillations 5% 3×/day, Day 21

CCN(C(=O)c1c(O)c2c(Cl)cccc2n(C)c1=O)c1ccccc1 [laquinimod]
Inhibition of corneal vascularisation induced by bFGF ([1]; 0.5 mg/kg qid, group 6): 37%
Area of vasc. [1, 4]: 3.16 ± 0.06
Area percent of positive control [1, 4]: 89%
Area of vasc. [1, 5]: 2.25 ± 0.16
Area percent of positive control [1, 5]: 63%
Area percent of positive control [1, 6]: 44%
Inhibition of corneal vascularisation induced by bFGF ([2]; 0.5 mg/kg bid, group 4): 11%
Inhibition of corneal vascularisation induced by bFGF ([2]; 2.5 mg/kg bid, group 5): 35%
Inhibition of corneal vascularisation induced by bFGF ([2]; 2.5 mg/kg qid, group 7): 56%
Area of vasc. [2, 7]: 2.30 ± 0.23
Area percent of positive control [2, 7]: 65%
Area of vasc. [2, 6]: 1.56 ± 0.15
% of reduction vs respective vehicle [3, 8]: 0%
Mean score of fluorescein leakage [3, 8]: 0.7
% of reduction vs respective vehicle [3, 9]: 18%
Mean score of fluorescein leakage [3, 9]: 0.9
% of reduction vs respective vehicle [3, 10]: <0%
Mean score of fluorescein leakage [3, 10]: 1.1
% of reduction vs respective vehicle [3, 11]: <0%
Mean score of fluorescein leakage [3, 11]: 1.2
% of reduction vs respective vehicle [3, 12]: 0%
Mean score of fluorescein leakage [3, 12]: 0.7
% of reduction vs respective vehicle [3, 13]: 63%
Mean score of fluorescein leakage [3, 13]: 0.4
% of reduction vs respective vehicle ([3]; Per os 1 mg/kg 2×/day, Day 14): <0%
Mean score of fluorescein leakage ([3]; Per os 1 mg/kg 2×/day, Day 14): 0.8
% of reduction vs respective vehicle ([3]; Per os 1 mg/kg 2×/day, Day 21): 18%
Mean score of fluorescein leakage ([3]; Per os 1 mg/kg 2×/day, Day 21): 0.9
vascular leakage ([3]; daily topical administration): effectively reduces vascular leakage
